# Results as given in patent publication US20160168140A1, “HETEROCYCLIC COMPOUNDS AS ANTIBIOTIC POTENTIATORS” (priority 2014, published 2016).
# System: Acinetobacter baumannii (Ab23)
# Experiment: MIC shift assay of antibiotics (broth microdilution)
# Assay type: cell-based
# Conditions: compound concentration 4 μM; fold shift of colistin MIC; nc = no changeover or no shift
# Protocol: Minimum inhibitory concentration (MIC) shift assays were performed to determine if the test compounds could alter the MIC of existing antibacterial drugs (e.g., ciprofloxacin and colistin) for E. coli, Acinetobacter baumannii, Klebsiella pneumoniae, Pseudomonas aeruginosa, and Enterobacter cloacae. The MIC shift assay is based on the standard broth microdilution MIC determination protocol of Wiegand et al, Nat Protoc. 3(2):163-75 (2008), with slight modifications that allow for the screening of up to seven test compounds in a single plate.
# On the day before an assay, bacteria were grown overnight in cation-adjusted Mueller Hinton broth (CAMHB; Teknova, Hollister, Calif.) at 37° C. in an orbital shaker and sub-cultured at a 1:200 dilution the following morning. The cells were grown to OD600=0.5 to 0.8 and then diluted to OD600=0.01. From a serial dilution of each antibiotic at (50 μL of 2× concentrated stock solutions) several concentrations were added to the wells of a sterile, transparent round-bottom 96-well plate (Phenix Research Products, Candler, N.C.), and diluted cells (50 μL) were added to the plates for a starting OD600 of 0.005. […] A row of wells lacking test compound but containing the antibiotic was used to determine the MIC of that antibiotic alone. A column of wells lacking both antibiotic and test compound served as a growth control, and an additional column containing only CAMHB was included as a sterile blank control.
# The plates were incubated for 18 to 20 h at 37° C. in an orbital shaker, and the cell density (OD600) was determined the following day in a microplate reader (PolarStar Optima, BMG Labtech). The MIC shift was determined by comparing the MIC of the antibiotic alone to the MIC of the antibiotic plus test compound.
row,Molecule,"colistin MIC shift, Ab23 at (compd concentration)"
1,"3,3′-(propane-2,2-diyl)bis(5,6-dichloro-1H-indole) [compound 461]",64x
2,CCN(CC)CCCC(C)Nc1nc(/C=C/c2ccc3ccccc3c2)nc2cc(Cl)ccc12 (racemic) [compound 305],4x
3,CCN(CC)CCCC(C)Nc1nc(/C=C/c2ccc(Cl)c(Cl)c2)nc2c(C(F)(F)F)cccc12 (racemic) [compound 312],16x
4,CCN(CC)CCCC(C)Nc1nc(/C=C/c2ccc(Cl)c(Cl)c2)nc2c([N+](=O)[O-])cccc12 (racemic) [compound 314],8x
5,CCN(CC)CCCC(C)Nc1nc(/C=C/c2ccc(Cl)c(Cl)c2)nc2cc(C(F)(F)F)ccc12 (racemic) [compound 315],4-8x
6,CCN(CC)CCCC(C)Nc1nc(/C=C/c2ccc(Cl)c(Cl)c2)nc2c(Br)cccc12 (racemic) [compound 316],2-8x
7,CCN(CC)CCCC(C)Nc1nc(/C=C/c2ccc(Cl)c(Cl)c2)nc2ccc(Cl)cc12 (racemic) [compound 317],2x
8,CCN(CC)CCCC(C)Nc1nc(/C=C/c2ccc(Cl)c(Cl)c2)nc2ccc(Br)cc12 (racemic) [compound 318],2x
9,CCN(CC)CCCC(C)Nc1nc(/C=C/c2ccc(Cl)c(Cl)c2)nc2c(F)cccc12 (racemic) [compound 319],2x
10,CCN(CC)CCCC(C)Nc1nc(/C=C/c2ccc(Cl)c(Cl)c2)nc2c(Cl)cccc12 (racemic) [compound 320],2x
11,CCN(CC)CCCC(C)Nc1nc(/C=C/c2ccc(Cl)c(Cl)c2)nc2cc(Cl)ccc12 (racemic) [compound 325],4x
12,CCN(CC)CCCC(C)Nc1nc(-c2cn(Cc3ccccc3)c3c(Cl)cccc23)nc2c(F)cccc12 (racemic) [compound 564],4x
13,CCN(CC)CCCC(C)Nc1nc(-c2cn(Cc3ccccc3)c3c(Cl)cccc23)nc2c(Cl)cccc12 (racemic) [compound 566],8x
14,CCN(CC)CCCC(C)Nc1nc(-c2cn(Cc3ccccc3)c3c(Cl)cccc23)nc2c(Br)cccc12 (racemic) [compound 568],4x
15,CCN(CC)CCCC(C)Nc1nc(-c2cn(Cc3ccc(C)cc3)c3c(Cl)cccc23)nc2c(C)cccc12 (racemic) [compound 572],4x
16,CCN(CC)CCCC(C)Nc1nc(-c2cn(Cc3ccc(Cl)cc3)c3c(Cl)cccc23)nc2c(C)cccc12 (racemic) [compound 576],8x
17,CCN(CC)CCCC(C)Nc1nc(-c2cn(Cc3cccc(Cl)c3)c3c(Cl)cccc23)nc2c(C)cccc12 (racemic) [compound 578],16x
18,CCNCCCC(C)Nc1nc(-c2cn(Cc3ccccc3)c3c(Cl)cccc23)nc2c(C)cccc12 (racemic) [compound 581],4x

row,Molecule,"colistin MIC shift, Ab23 at (compd concentration)"
1,CCN(CC)CCCC(C)Nc1nc(-c2cn(Cc3ccccc3)c3c(Cl)cccc23)nc2cc(Cl)ccc12 (racemic) [compound 584],8x
2,COc1ccc2c(NCCCN(C)C)nc(/C=C/c3ccc(Cl)c(Cl)c3)nc2c1C [335a],8x
3,CN(C)CCOC(=O)n1cc(-c2ccc(Cl)c(Cl)c2)c2cc(Cl)ccc21 [362a],8x
4,CCC(N)C(=O)n1cc(/C=C/c2ccc(Cl)c(Cl)c2)c2cc(Br)ccc21 (stereo not shown) [362d],32x
5,CN(C)CC(=O)n1cc(/C=C/c2ccc(Cl)c(Cl)c2)c2cc(Br)ccc21 [362e],32x
6,CCC(N)C(=O)n1cc(-c2ccc(Cl)c(Cl)c2)c2cc(Cl)ccc21 (stereo not shown) [362f],64x
7,CN1CCN(CC(=O)n2cc(-c3ccc(Cl)c(Cl)c3)c3cc(Cl)ccc32)CC1 [362g],16x
8,Cc1cccc2c(NCCCN)nc(-c3cccc(-c4cc(C(F)(F)F)ccc4F)c3)nc12 [491a],128x
9,Cc1cccc2c(NCCCN)nc(-c3cc(Br)cc(C(F)(F)F)c3)nc12 [524a],128x
10,Cc1cccc2c(NCCCN(C)C)nc(-c3cc(-c4ccccn4)cc(C(F)(F)F)c3)nc12 [524b],16x
11,Cc1cccc2c(NCCCN(C)C)nc(-c3cc(-c4cncnc4)cc(C(F)(F)F)c3)nc12 [524c],2x
12,Cc1c(-c2ccccc2)ccc2c(NCCCN(C)C)nc(-c3cc(Br)cc(C(F)(F)F)c3)nc12 [524d],16-32x
13,Cc1c(-c2ccccc2)ccc2c(NCCCN(C)C)nc(-c3cc(-c4ccccc4)cc(C(F)(F)F)c3)nc12 [524e],4x
14,Cc1cccc2c(NCCN(C)C)nc(-c3cc(-c4ccccc4)cc(C(F)(F)F)c3)nc12 [524f],32x
15,Cc1cc(Br)cc2c(NCCCN(C)C)nc(-c3cc(Br)cc(C(F)(F)F)c3)nc12 [524g],16x
16,Cc1cccc2c(NCCCN)nc(-c3cc(-c4ccccc4)cc(C(F)(F)F)c3)nc12 [524i],128x
17,Cc1cccc2c(NCCCN)nc(-c3cc(-c4ccccc4Cl)cc(C(F)(F)F)c3)nc12 [524m],128x

# Same assay, conditions: compound concentration 8 μM; fold shift of colistin MIC; nc = no changeover or no shift
row,Molecule,"colistin MIC shift, Ab23 at (compd concentration) [x]"
1,CCN(CC)CCCC(C)Nc1nc(/C=C/c2cccc(Br)c2)nc2cc(Cl)ccc12 (racemic) [compound 306],4
2,CCN(CC)CCCC(C)Nc1nc(/C=C/c2ccc(C(F)(F)F)cc2)nc2cc(Cl)ccc12 (racemic) [compound 307],4

# Same assay, conditions: compound concentration 10 μM; fold shift of colistin MIC; nc = no changeover or no shift
row,Molecule,"colistin MIC shift, Ab23 at (compd concentration) [x]"
1,CCN(CC)CCCC(C)Nc1nc(/C=C/c2ccc(C(=O)OC)cc2)nc2cc(Cl)ccc12 (racemic) [compound 309],4
2,CCN(CC)CCCC(C)Nc1nc(/C=C/c2ccc(Cl)cc2)nc2cc(Cl)ccc12 (racemic) [compound 310],8
3,CCN(CC)CCCC(C)Nc1nc(/C=C/c2ccc(Cl)c(Cl)c2)nc2cc(F)c(F)cc12 (racemic) [compound 321],8
4,CCN(CC)CCCC(C)Nc1nc(-c2cn(Cc3ccccc3)c3c(Cl)cccc23)nc2ccccc12 (racemic) [compound 562],8
5,CCN(CC)CCCC(C)Nc1nc(-c2cn(Cc3ccccc3)c3c(Cl)cccc23)nc2c(-c3ccncc3)cccc12 (racemic) [compound 570],2
6,CCN(CC)CCCC(C)Nc1nc(-c2cn(Cc3cccc(C)c3)c3c(Cl)cccc23)nc2c(C)cccc12 (racemic) [compound 574],8
